# Test results taken from the supplement of paper PMC10307832.
# Tests used:
# Experiment in all cases: relative viability (nuclei count vs DMSO), 5 days (fraction); higher = more cells survive
# [1] = compound: CN1CCN(CC1)C2=CC(=C(C=C2)NC3=NC(=C(S3)C(=O)C4=C(C=CC=C4Cl)Cl)N)OC [XMD14-99] + C[C@]1(O)C[C@@H](c2nc(-c3ccc4ccc(-c5ccccc5)nc4c3)c3c(N)nccn32)C1 [Linsitinib] (partner 1 µM)
# Outline: (§1)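 Five library-drug doses in √10 steps were combined with a fixed anchor-drug dose, or a single drug was given alone, by pin tool to lung cancer cell lines in 1536-well plates the day after seeding. Nuclei were stained and counted after 5 days. Relative viability is the nuclei count in treated wells over that in vehicle wells, taken as the median of duplicate plates.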
# [2] = compound: CN1CCN(CC1)C2=CC(=C(C=C2)NC3=NC(=C(S3)C(=O)C4=C(C=CC=C4Cl)Cl)N)OC [XMD14-99] + Cc1cc(Nc2cc(N3CCN(C)CC3)nc(Sc3ccc(NC(=O)C4CC4)cc3)n2)n[nH]1 [Tozasertib] (partner 0.1 µM)
# Outline: as §1
# [3] = compound: N[C@@H]1CCCN(c2c(/C=C3\SC(=O)NC3=O)cccc2-c2ccccc2)C1 [AZD1208] + COc1cc2c(Oc3ccc(NC(=O)C4(C(=O)Nc5ccc(F)cc5)CC4)cc3F)ccnc2cc1OCCCN1CCOCC1 [Foretinib] (partner 0.25 µM)
# Outline: as §1
# [4] = compound: N[C@@H]1CCCN(c2c(/C=C3\SC(=O)NC3=O)cccc2-c2ccccc2)C1 [AZD1208] + Cc1nc(NC(=O)N2CCC[C@H]2C(N)=O)sc1-c1ccnc(C(C)(C)C(F)(F)F)c1 [Alpelisib] (partner 2 µM)
# Outline: as §1
cell line,measurement,setting,value
UMC-11,relative viability,[1]; first compound 0.08 µM,1.03
same,relative viability,[1]; first compound 0.8 µM,1.03
same,relative viability,[1]; first compound 2.53 µM,1.03
same,relative viability,[1]; first compound 8 µM,0.858
same,relative viability,[2]; first compound 0.08 µM,0.196
same,relative viability,[2]; first compound 0.8 µM,0.227
same,relative viability,[2]; first compound 2.53 µM,0.231
same,relative viability,[2]; first compound 8 µM,0.23
same,relative viability,[3]; first compound 0.08 µM,0.884
same,relative viability,[3]; first compound 0.253 µM,0.877
same,relative viability,[3]; first compound 0.8 µM,0.77
same,relative viability,[3]; first compound 2.53 µM,0.741
same,relative viability,[3]; first compound 8 µM,0.458
same,relative viability,[4]; first compound 0.08 µM,0.757
same,relative viability,[4]; first compound 0.253 µM,0.908
same,relative viability,[4]; first compound 0.8 µM,0.746
same,relative viability,[4]; first compound 2.53 µM,0.77
same,relative viability,[4]; first compound 8 µM,0.488
